The term EC50 denotes the concentration that produces a half-maximal response.

Where only a bound is given, the exact number is not on record here.

The text below walks through data of US10584115B2, “Substituted pyridine and pyrazine BMI-1 inhibitors” (PTC Therapeutics, Inc., priority 2013, dated 2020).

The test system of one experiment is Bmi-1 protein. The experiment in a line: Sandwich ELISA Assay (Bmi-1 protein level in HT-1080 cells after compound treatment). It counts as cell-based. To be noted: Table 1, Bmi-1 sandwich ELISA, read-out: ELISA EC50 value for Bmi-1 protein. The procedure, abridged:
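Sandwich ELISA quantified Bmi-1 protein against recombinant standard (125–8000 pg/mL), with lysates captured overnight at 4 °C and signal by HRP/TMB at 450 nm (570 nm reference). Lysates came from HT-1080 cells incubated 40–48 h with test compounds in 0.5% DMSO.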
A general note: An ELISA detects its analyte on a solid surface through an enzyme-linked reagent.
As to `CCc1nn2ccccc2c1-c1cc(C#N)cc(Nc2ccc(OC(F)(F)F)cc2)n1` [compound 529, 2-(2-ethylpyrazolo[1,5-a]pyridin-3-yl)-6-{[4-(trifluoromethoxy)phenyl]amino}pyridine-4-carbonitrile], the EC50 is 100 to 3000 nM.
For the molecule `Cc1nc2c(n1-c1cncc(Nc3ccc(OC(F)F)cc3)n1)CCCC2` [compound 258, N-[4-(difluoromethoxy)phenyl]-6-(2-methyl-4,5,6,7-tetrahydro-1H-benzimidazol-1-yl)pyrazin-2-amine], the EC50 lay within 1 to 10 nM.
Turning to `COc1ccc(Nc2cncc(-n3c(C(F)(F)F)nc4ccccc43)n2)cc1` [compound 43, N-(4-methoxyphenyl)-6-[2-(trifluoromethyl)-1H-benzimidazol-1-yl]pyrazin-2-amine], the EC50 lay in the range of 1 to 10 nM.
Consider `Cc1nn2ccc(F)cc2c1-c1cncc(Nc2ccc(C(F)(F)F)cc2)n1` [compound 537, 6-(5-fluoro-2-methylpyrazolo[1,5-a]pyridin-3-yl)-N-[4-(trifluoromethyl)phenyl]pyrazin-2-amine], for which the EC50 lay within 10 to 100 nM.
As to `Cc1cc(-c2cncc(Nc3ccc(C(F)(F)F)cc3)n2)ccn1` [compound 353, 6-(2-methylpyridin-4-yl)-N-[4-(trifluoromethyl)phenyl]pyrazin-2-amine], the EC50 is 100 to 3000 nM.
Turning to `Cc1nn2ccccc2c1-c1cncc(Nc2ccc(C#N)cc2)n1` [compound 571, 4-{[6-(2-methylpyrazolo[1,5-a]pyridin-3-yl)pyrazin-2-yl]amino}benzonitrile], the EC50 was 10 to 100 nM.
As to `N#Cc1cc(Nc2ccc(C(F)(F)F)cc2)nc(-n2c(C3CC3)nc3ncc(F)cc32)c1` [compound 490, 2-(2-cyclopropyl-6-fluoro-1H-imidazo[4,5-b]pyridin-1-yl)-6-{[4-(trifluoromethyl)phenyl]amino}pyridine-4-carbonitrile], the concentration giving a half-maximal response (EC50) lay in the range of 10 to 100 nM.
With `CC(=O)c1ccc(Nc2cncc(-n3c(C)nc4ccccc43)n2)cc1` [compound 153, 1-(4-{[6-(2-methyl-1H-benzimidazol-1-yl)pyrazin-2-yl]amino}phenyl)ethanone], the EC50 lay within 1 to 10 nM.
With `Cc1nc2ncc(F)cn2c1-c1cc(C#N)cc(Nc2ccc(OC(F)(F)F)cc2)n1` [compound 438, 2-(6-fluoro-2-methylimidazo[1,2-a]pyrimidin-3-yl)-6-{[4-(trifluoromethoxy)phenyl]amino}pyridine-4-carbonitrile], the EC50 fell in the range of 10 to 100 nM.
Regarding `Cc1nc2ccccc2n1-c1cncc(Nc2ccc(C(C)C)cc2)n1` [compound 661, 6-(2-methyl-1H-benzimidazol-1-yl)-N-[4-(propan-2-yl)phenyl]pyrazin-2-amine], the EC50 was in the range of 10 to 100 nM.
Same read-out and setting: the value for `Cc1ccc(Nc2cc(C#N)cc(-n3c(C)nc4ccc(F)cc43)n2)cc1` [compound 611, 2-(6-fluoro-2-methyl-1H-benzimidazol-1-yl)-6-[(4-methylphenyl)amino]pyridine-4-carbonitrile] was 1 to 10 nM; that for `[O-][n+]1cc(Nc2ccc(OC(F)F)cc2)nc(-n2c(C3CC3)nc3cc(F)c(F)cc32)c1` [compound 530, 6-(2-cyclopropyl-5,6-difluoro-1H-benzimidazol-1-yl)-N-[4-(difluoromethoxy)phenyl]pyrazin-2-amine 4-oxide] was 10 to 100 nM.
In the case of `Fc1ccc2ncc(-c3cncc(Nc4ccc(C(F)(F)F)cc4)n3)n2c1` [compound 308, 6-(6-fluoroimidazo[1,2-a]pyridin-3-yl)-N-[4-(trifluoromethyl)phenyl]pyrazin-2-amine], the 50% effective concentration (EC50) is 100 to 3000 nM.
With `Cc1nc2ccccc2n1-c1cncc(Nc2ccc(OC(F)(F)C(F)F)cc2)n1` [compound 307, 6-(2-methyl-1H-benzimidazol-1-yl)-N-[4-(1,1,2,2-tetrafluoroethoxy)phenyl]pyrazin-2-amine], the EC50 lay in the range of 100 to 3000 nM.
Consider `Oc1ccc2nc(C(F)(F)F)c(-c3cccc(Nc4ccc(C(F)(F)F)cc4)n3)n2c1` [compound 111, 2-(trifluoromethyl)-3-(6-{[4-(trifluoromethyl)phenyl]amino}pyridin-2-yl)imidazo[1,2-a]pyridin-6-ol], for which the EC50 was in the range of 10 to 100 nM.
Turning to `Cc1nc2cc(F)c(F)cc2n1-c1cccc(Nc2ccc(OC(F)(F)F)cc2)n1` [compound 603, 6-(5,6-difluoro-2-methyl-1H-benzimidazol-1-yl)-N-[4-(trifluoromethoxy)phenyl]pyridin-2-amine], the half-maximal effective concentration (EC50) is 100 to 3000 nM.
On the same count and under the same terms, the value for `Cc1cc(C)c2nc(C)n(-c3cncc(Nc4ccc(C(F)(F)F)cc4)n3)c2c1` [Cpd 421, N-[4-(trifluoromethyl)phenyl]-6-(2,4,6-trimethyl-1H-benzimidazol-1-yl)pyrazin-2-amine] was 10 to 100 nM; that for `COc1ccc(Nc2cncc(-c3c(C(F)(F)F)nc4ccccn34)n2)cc1F` [Cpd 7, N-(3-fluoro-4-methoxyphenyl)-6-[2-(trifluoromethyl)imidazo[1,2-a]pyridin-3-yl]pyrazin-2-amine] was less than 1 nM; that for `COc1ccc2nc(C(F)(F)F)c(-c3cccc(Nc4ccc(OC(F)F)cc4)n3)n2c1` [compound 103, N-[4-(difluoromethoxy)phenyl]-6-[6-methoxy-2-(trifluoromethyl)imidazo[1,2-a]pyridin-3-yl]pyridin-2-amine] was 10 to 100 nM.
Same read-out and setting: the result for `Cc1nc2ccccc2n1-c1cncc(Nc2ccc(C(F)(F)F)cc2)n1` [compound 13, 6-(2-methyl-1H-benzimidazol-1-yl)-N-[4-(trifluoromethyl)phenyl]pyrazin-2-amine] reads 10 to 100 nM.
Still for that read-out and setting: the result for `FC1(F)Oc2ccc(Nc3cncc(-c4cccc5nc(C6CC6)cn45)n3)cc2O1` [compound 88, 6-(2-cyclopropylimidazo[1,2-a]pyridin-5-yl)-N-(2,2-difluoro-1,3-benzodioxol-5-yl)pyrazin-2-amine] reads 100 to 3000 nM; that for `CCc1nc2ncc(Nc3ccc(OC(F)F)cc3)cc2n1-c1cncc(Nc2ccc(OC(F)F)cc2)n1` [compound 545, N-[4-(difluoromethoxy)phenyl]-1-(6-{[4-(difluoromethoxy)phenyl]amino}pyrazin-2-yl)-2-ethyl-1H-imidazo[4,5-b]pyridin-6-amine], 100 to 3000 nM; that for `Cc1nc2ccc(Cl)cc2n1-c1cc(C#N)cc(Nc2ccc(C(F)(F)F)cc2)n1` [compound 345, 2-(6-chloro-2-methyl-1H-benzimidazol-1-yl)-6-{[4-(trifluoromethyl)phenyl]amino}pyridine-4-carbonitrile], 10 to 100 nM.
`COc1cc(Nc2ccc(OC(F)F)cc2)nc(-c2c(C(F)(F)F)nc3ccccn23)c1` [Cpd 125, N-[4-(difluoromethoxy)phenyl]-4-methoxy-6-[2-(trifluoromethyl)imidazo[1,2-a]pyridin-3-yl]pyridin-2-amine]: the EC50 fell in the range of 100 to 3000 nM.
On to `COc1ccc(Nc2cncc(-c3c(C(F)(F)F)nc4ccc(F)cn34)n2)cc1` [Cpd 57, 6-[6-fluoro-2-(trifluoromethyl)imidazo[1,2-a]pyridin-3-yl]-N-(4-methoxyphenyl)pyrazin-2-amine], for which the EC50 was less than 1 nM.
Same read-out and setting: the result for `COc1ccc(Nc2cc(N)cc(-n3c(C)nc4cc(F)c(F)cc43)n2)cc1` [compound 656, 6-(5,6-difluoro-2-methyl-1H-benzimidazol-1-yl)-N^2-(4-methoxyphenyl)pyridine-2,4-diamine] reads 10 to 100 nM; that for `CCc1nc2ncc(Cl)cc2n1-c1cc(C#N)cc(Nc2ccc(OC(F)F)cc2)n1` [compound 452, 2-(6-chloro-2-ethyl-1H-imidazo[4,5-b]pyridin-1-yl)-6-{[4-(difluoromethoxy)phenyl]amino}pyridine-4-carbonitrile], 10 to 100 nM; that for `FC(F)(F)Sc1ccc(Nc2cncc(-c3c(C(F)(F)F)nc4ccccn34)n2)cc1` [compound 211, 6-[2-(trifluoromethyl)imidazo[1,2-a]pyridin-3-yl]-N-{4-[(trifluoromethyl)sulfanyl]phenyl}pyrazin-2-amine], 100 to 3000 nM.
Same read-out and setting: the value for `Cc1nc2c([N+](=O)[O-])cccc2n1-c1cncc(Nc2ccc(C(F)(F)F)cc2)n1` [compound 284, 6-(2-methyl-4-nitro-1H-benzimidazol-1-yl)-N-[4-(trifluoromethyl)phenyl]pyrazin-2-amine] was 100 to 3000 nM; that for `Cc1nc2cnccc2n1-c1cncc(Nc2ccc(C(F)(F)F)cc2)n1` [compound 166, 6-(2-methyl-1H-imidazo[4,5-c]pyridin-1-yl)-N-[4-(trifluoromethyl)phenyl]pyrazin-2-amine] was 100 to 3000 nM; that for `CCc1nc2ncc(Cl)cc2n1-c1cncc(Nc2ccc(OC(F)F)c(F)c2)n1` [compound 546, 6-(6-chloro-2-ethyl-1H-imidazo[4,5-b]pyridin-1-yl)-N-[4-(difluoromethoxy)-3-fluorophenyl]pyrazin-2-amine] was 1 to 10 nM.
For the molecule `COc1c(F)cc(Nc2cc(C#N)cc(-c3c(C)nc4ccc(F)cn34)n2)cc1F` [compound 313, 2-[(3,5-difluoro-4-methoxyphenyl)amino]-6-(6-fluoro-2-methylimidazo[1,2-a]pyridin-3-yl)pyridine-4-carbonitrile], the EC50 lay in the range of 1 to 10 nM.
In the case of `Cc1nc2c(F)cc(F)cc2n1-c1cc(C#N)cc(Nc2ccc(OC(F)(F)F)cc2)n1` [Cpd 449, 2-(4,6-difluoro-2-methyl-1H-benzimidazol-1-yl)-6-{[4-(trifluoromethoxy)phenyl]amino}pyridine-4-carbonitrile], the 50% effective concentration (EC50) lay in the range of 100 to 3000 nM.

The experiment is the same for the next values; noted with them: read-out: ELISA EC50 value for Bmi-1 protein, Table 1, Bmi-1 sandwich ELISA.
Turning to `COc1ccc(Nc2cccc(-n3c(C)nc4ccccc43)n2)cc1` [Cpd 32, N-(4-methoxyphenyl)-6-(2-methyl-1H-benzimidazol-1-yl)pyridin-2-amine], the EC50 was 1 to 10 nM.
`FC(F)(F)c1ccc(Nc2cncc(-c3cnc4ccccn34)n2)cc1` [compound 235, 6-(imidazo[1,2-a]pyridin-3-yl)-N-[4-(trifluoromethyl)phenyl]pyrazin-2-amine]: the EC50 lay within 100 to 3000 nM.
As to `Cc1nc2ccccc2n1-c1ccc(N)c(Nc2ccc(C(F)(F)F)cc2)n1` [compound 465, 6-(2-methyl-1H-benzimidazol-1-yl)-N^2-[4-(trifluoromethyl)phenyl]pyridine-2,3-diamine], the EC50 lay in the range of 100 to 3000 nM.
